Reference: US20040077728A1, “Retiferol derivatives and their use in the treatment of skin diseases or conditions associated with photodamage” (priority 2000, published 2004)

Assay: Calcium liability (tolerance test in mice)
Type: in vivo
Conditions: mice (25-30 g), daily subcutaneous administration for 4 consecutive days; dose giving zero weight gain over the 5-day treatment period
Excerpt: Calcium Liability (Tolerance Test in Mice):
This test gives a global picture of calcemic liability. Profound changes in calcium homeostasis strongly affect the weight development of the animals. This parameter was used as a primary test for tolerance. Mice (25-30 g body weight) received daily subcutaneous administrations of the vitamin D derivative for 4 consecutive days. Body weight was registered just before and at the end of a 5-day treatment period. The “highest tolerated dose” (HTDsc) in mice is the dose which results in zero weight gain during this treatment period.

C=C1/C(=C\C=C2/CCC[C@]3(C)[C@@H]([C@H](C)CCCC(C)(C)O)CC[C@@H]23)C[C@@H](O)C[C@@H]1O [calcitriol]
HTDs.c. highest tolerated dose without weight loss: 1 µg/kg
